Patent US12559464B2, “Quinazolinone dione compounds and uses thereof” (Edgewise Therapeutics, Inc., priority 2023, dated 2026)

Key:
[1] = system: myosin ATPase, Porcine Atria myofibrils; test: Myofibril ATPase assay, porcine atria myofibrils; assay type: biochemical; details: concentration required to reduce myosin ATP-ase activity by 25%; Porcine Atria Prep pCa 25 GEOM_MEAN
[2] = system: myosin ATPase, Rabbit Psoas myofibrils; test: Myofibril ATPase assay, rabbit psoas (skeletal) myofibrils; assay type: biochemical; details: Rabbit Psoas Prep pCa 25 GEOM_MEAN; for Rabbit Psoas EC25 (Y75 value): concentration required to reduce myosin ATP-ase activity by 25%
[3] = biological target: T1, myosin ATPase, Porcine Ventricle myofibrils (Sus scrofa, UniProt P79293); test: Myofibril ATPase assay, porcine ventricle myofibrils; assay type: biochemical, porcine (Yucatan minipigs); details: concentration required to reduce myosin ATP-ase activity by 25%; Porcine Ventricle Prep pCa 25 GEOM_MEAN
T1 construct: Myofibrils from porcine cardiac muscle was isolated from the left ventricle of Yucatan minipigs; tissue Exemplar Genetics; host or cells: left ventricle of Yucatan minipigs, myofibrils
T1 sequence (P79293 whole entry): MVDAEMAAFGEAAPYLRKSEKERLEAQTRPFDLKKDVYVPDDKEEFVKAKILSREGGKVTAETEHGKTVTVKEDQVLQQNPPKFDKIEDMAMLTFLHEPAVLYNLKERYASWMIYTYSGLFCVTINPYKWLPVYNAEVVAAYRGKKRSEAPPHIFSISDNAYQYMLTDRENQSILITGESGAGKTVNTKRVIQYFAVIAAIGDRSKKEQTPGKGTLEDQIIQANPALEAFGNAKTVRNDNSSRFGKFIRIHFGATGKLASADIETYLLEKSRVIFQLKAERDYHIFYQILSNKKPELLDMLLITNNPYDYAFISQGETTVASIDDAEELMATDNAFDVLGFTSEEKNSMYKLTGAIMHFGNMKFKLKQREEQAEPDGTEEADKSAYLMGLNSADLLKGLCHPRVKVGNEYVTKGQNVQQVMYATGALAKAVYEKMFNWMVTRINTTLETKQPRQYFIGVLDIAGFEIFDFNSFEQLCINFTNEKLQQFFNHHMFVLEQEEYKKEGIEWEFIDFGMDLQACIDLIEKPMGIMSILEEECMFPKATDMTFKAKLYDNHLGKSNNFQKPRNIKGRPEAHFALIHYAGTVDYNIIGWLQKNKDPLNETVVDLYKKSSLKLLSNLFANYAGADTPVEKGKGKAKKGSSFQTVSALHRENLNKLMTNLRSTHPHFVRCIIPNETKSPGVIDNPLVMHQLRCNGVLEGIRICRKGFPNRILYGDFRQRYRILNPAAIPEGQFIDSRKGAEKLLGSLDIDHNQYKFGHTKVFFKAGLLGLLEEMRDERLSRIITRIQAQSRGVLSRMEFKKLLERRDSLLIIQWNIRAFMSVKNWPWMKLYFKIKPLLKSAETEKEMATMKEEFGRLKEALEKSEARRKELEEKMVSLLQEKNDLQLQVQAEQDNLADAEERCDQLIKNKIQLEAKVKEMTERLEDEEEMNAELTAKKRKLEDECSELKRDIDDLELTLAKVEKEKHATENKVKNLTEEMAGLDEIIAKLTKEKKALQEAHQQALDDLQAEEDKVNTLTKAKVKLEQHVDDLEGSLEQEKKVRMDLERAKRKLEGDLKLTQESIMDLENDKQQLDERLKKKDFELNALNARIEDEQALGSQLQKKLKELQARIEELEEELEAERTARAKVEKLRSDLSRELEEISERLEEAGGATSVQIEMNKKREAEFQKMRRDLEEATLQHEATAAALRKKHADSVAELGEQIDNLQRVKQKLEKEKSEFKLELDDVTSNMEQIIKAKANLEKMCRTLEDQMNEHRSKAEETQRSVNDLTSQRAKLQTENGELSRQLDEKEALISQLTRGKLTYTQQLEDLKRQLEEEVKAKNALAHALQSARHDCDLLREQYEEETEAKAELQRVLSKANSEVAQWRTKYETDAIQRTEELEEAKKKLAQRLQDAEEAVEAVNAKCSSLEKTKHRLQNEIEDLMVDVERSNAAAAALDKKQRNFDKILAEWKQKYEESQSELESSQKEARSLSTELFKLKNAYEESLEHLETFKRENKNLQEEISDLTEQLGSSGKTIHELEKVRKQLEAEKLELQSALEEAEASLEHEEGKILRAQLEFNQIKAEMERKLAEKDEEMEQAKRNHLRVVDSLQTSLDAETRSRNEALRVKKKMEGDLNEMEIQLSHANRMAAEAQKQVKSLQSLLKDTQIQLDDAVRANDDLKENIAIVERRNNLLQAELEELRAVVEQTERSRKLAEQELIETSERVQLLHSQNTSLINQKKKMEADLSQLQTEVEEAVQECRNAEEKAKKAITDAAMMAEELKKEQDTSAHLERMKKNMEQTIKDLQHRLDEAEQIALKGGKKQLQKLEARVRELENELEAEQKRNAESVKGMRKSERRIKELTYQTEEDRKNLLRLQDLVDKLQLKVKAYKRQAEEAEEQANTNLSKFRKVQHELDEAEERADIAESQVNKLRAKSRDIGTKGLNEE
In short: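 Myofibrils from Yucatan minipig left ventricle; ADP production coupled via PK-LDH to NADH loss, read kinetically at 340 nm every 1.5–2 min for 75 min in PIPES/MgCl2 pH 7.0 buffer. Slopes normalized to vehicle and fit to 4-parameter logistic; values are concentrations giving 75% (inhibition) or 125% (activation) of vehicle activity.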

With `C[C@H](NC(=O)[C@@H](CC1CC1)n1c(=O)[nH]c2ccccc2c1=O)c1ncc(F)cc1F` (single isomer, unassigned) [Compound 212] the “Porcine Atria EC25 (Y75 value)” value [1] was 100 µM, the “Rabbit Psoas EC25 (Y75 value)” value [2] was 100 µM and the “Porcine Ventricle EC25 (Y75 value)” value [3] was 100 µM.

In the case of `C[C@H](NC(=O)[C@@H](C)n1c(=O)[nH]c2ccccc2c1=O)c1ccc(F)cc1F` (single isomer, unassigned) [Compound 101], the “Porcine Atria EC25 (Y75 value)” value [1] is reported as 1.036 µM, the “Rabbit Psoas EC25 (Y75 value)” value [2] is reported as 1.521 µM and the “Porcine Ventricle EC25 (Y75 value)” value [3] is reported as 87.37 µM.

For `CC(NC(=O)Cn1c(=O)[nH]c2ccccc2c1=O)C1CCCC1` (stereo not drawn) [Compound 605, N-(1-cyclopentylethyl)-2-(2,4-dioxo-1,4-dihydroquinazolin-3(2H)-yl)acetamide], the “Porcine Atria EC25 (Y75 value)” value [1] was 100 µM, the “Rabbit Psoas EC25 (Y75 value)” value [2] was 100 µM and the “Porcine Ventricle EC25 (Y75 value)” value [3] was 100 µM.

`C[C@H](NC(=O)Cn1c(=O)[nH]c2cccc(F)c2c1=O)c1ncc(C#N)cc1F` (single isomer, unassigned) [Compound 208] was tested, and the “Porcine Atria EC25 (Y75 value)” value [1] was 0.085 µM, the “Rabbit Psoas EC25 (Y75 value)” value [2] was 0.065 µM and the “Porcine Ventricle EC25 (Y75 value)” value [3] was 0.254 µM.

With `C[C@H](NC(=O)Cn1c(=O)[nH]c2ccc(F)c(F)c2c1=O)c1ccc(C#N)cn1` (single isomer, unassigned) [Compound 18] the “Porcine Atria EC25 (Y75 value)” value [1] was 0.378 µM, the “Rabbit Psoas EC25 (Y75 value)” value [2] was 0.512 µM and the “Porcine Ventricle EC25 (Y75 value)” value [3] was 5.522 µM.

With `C[C@H](NC(=O)Cn1c(=O)[nH]c2cccc(C#N)c2c1=O)c1ncc(C#N)cn1` (single isomer, unassigned) [Compound 204] the “Porcine Atria EC25 (Y75 value)” value [1] was 100 µM, the “Rabbit Psoas EC25 (Y75 value)” value [2] was 100 µM and the “Porcine Ventricle EC25 (Y75 value)” value [3] was 70.61 µM.

With `C[C@H](NC(=O)Cn1c(=O)[nH]c2ccc(F)cc2c1=O)c1ncc(C#N)cn1` (single isomer, unassigned) [Compound 2] the “Porcine Atria EC25 (Y75 value)” value [1] was 24.53 µM, the “Rabbit Psoas EC25 (Y75 value)” value [2] was 86.83 µM and the “Porcine Ventricle EC25 (Y75 value)” value [3] was 100 µM.

`Cc1nccc2[nH]c(=O)n(CC(=O)N[C@H](C)c3ncc(C#N)cc3F)c(=O)c12` (single isomer, unassigned) [Compound 19] was tested, and the “Porcine Atria EC25 (Y75 value)” value [1] was 15.77 µM, the “Rabbit Psoas EC25 (Y75 value)” value [2] was 21.6 µM and the “Porcine Ventricle EC25 (Y75 value)” value [3] was 100 µM.

With `C[C@H](NC(=O)[C@@H](C)n1c(=O)[nH]c2ccc(F)c(F)c2c1=O)c1ccc(F)cc1F` [Compound 37, (R)-2-(5,6-difluoro-2,4-dioxo-1,4-dihydroquinazolin-3(2H)-yl)-N-((S)-1-(2,4-difluorophenyl)ethyl)propanamide] the “Porcine Atria EC25 (Y75 value)” value [1] was 0.658 µM, the “Rabbit Psoas EC25 (Y75 value)” value [2] was 0.412 µM and the “Porcine Ventricle EC25 (Y75 value)” value [3] was 17.77 µM.

`CC(c1ccc(F)cc1F)N(C)C(=O)Cn1c(=O)[nH]c2ccccc2c1=O` (stereo not drawn) [Compound 521, N-(1-(2,4-difluorophenyl)ethyl)-2-(2,4-dioxo-1,4-dihydroquinazolin-3(2H)-yl)-N-methylacetamide] was tested, and the “Porcine Atria EC25 (Y75 value)” value [1] was 100 µM, the “Rabbit Psoas EC25 (Y75 value)” value [2] was 1.26 µM and the “Porcine Ventricle EC25 (Y75 value)” value [3] was 100 µM.

For `CCC(C(=O)N[C@@H](C)c1ccc(F)cc1F)n1c(=O)[nH]c2ccccc2c1=O` (single isomer, unassigned) [Compound 509], the “Porcine Atria EC25 (Y75 value)” value [1] was 100 µM, the “Rabbit Psoas EC25 (Y75 value)” value [2] was 100 µM and the “Porcine Ventricle EC25 (Y75 value)” value [3] was 100 µM.

With `C[C@H](NC(=O)Cn1c(=O)[nH]c2ccccc2c1=O)c1ccccc1` (single isomer, unassigned) [Compound 534] the “Porcine Atria EC25 (Y75 value)” value [1] was 100 µM, the “Rabbit Psoas EC25 (Y75 value)” value [2] was 100 µM and the “Porcine Ventricle EC25 (Y75 value)” value [3] was 100 µM.

For `C[C@H](NC(=O)Cn1c(=O)c2cc(F)ccc2n(C)c1=O)c1ccc(F)cc1F` [Compound 404, (S)-N-(1-(2,4-difluorophenyl)ethyl)-2-(6-fluoro-1-methyl-2,4-dioxo-1,4-dihydroquinazolin-3(2H)-yl)acetamide], the “Porcine Atria EC25 (Y75 value)” value [1] was 12.2 µM, the “Rabbit Psoas Y125 value (marked #)” value ([2]; concentration required to increase myosin ATP-ase activity by 25%) was 100^# ^ μM and the “Porcine Ventricle EC25 (Y75 value)” value [3] was 100 µM.

`C[C@H](NC(=O)Cn1c(=O)[nH]c2ccccc2c1=O)c1ccncc1F` (single isomer, unassigned) [Compound 99] was tested, and the “Porcine Atria EC25 (Y75 value)” value [1] was 100 µM, the “Rabbit Psoas EC25 (Y75 value)” value [2] was 100 µM and the “Porcine Ventricle EC25 (Y75 value)” value [3] was 100 µM.

In the case of `C[C@H](NC(=O)Cn1c(=O)[nH]c2ccc(F)c(F)c2c1=O)c1ccc(F)cc1F` [Compound 39, (S)-2-(5,6-difluoro-2,4-dioxo-1,4-dihydroquinazolin-3(2H)-yl)-N-(1-(2,4-difluorophenyl)ethyl)acetamide], the “Porcine Atria EC25 (Y75 value)” value [1] is reported as 0.0536 µM, the “Rabbit Psoas EC25 (Y75 value)” value [2] is reported as 0.055 µM and the “Porcine Ventricle EC25 (Y75 value)” value [3] is reported as 0.3333 µM.

With `CC(NC(=O)Cn1c(=O)[nH]c2ccccc2c1=O)c1cccc(F)c1` (stereo not drawn) [Compound 519, 2-(2,4-dioxo-1,4-dihydroquinazolin-3(2H)-yl)-N-(1-(3-fluorophenyl)ethyl)acetamide] the “Porcine Atria EC25 (Y75 value)” value [1] was 79.37 µM, the “Rabbit Psoas EC25 (Y75 value)” value [2] was 100 µM and the “Porcine Ventricle EC25 (Y75 value)” value [3] was 100 µM.

For `Cc1c(F)ccc2[nH]c(=O)n(CC(=O)N[C@H]3CCc4cc(C#N)cnc43)c(=O)c12` [Compound 10, (S)-N-(3-cyano-6,7-dihydro-5H-cyclopenta[b]pyridin-7-yl)-2-(6-fluoro-5-methyl-2,4-dioxo-1,4-dihydroquinazolin-3(2H)-yl)acetamide], the “Porcine Atria EC25 (Y75 value)” value [1] was 100 µM, the “Rabbit Psoas EC25 (Y75 value)” value [2] was 100 µM and the “Porcine Ventricle EC25 (Y75 value)” value [3] was 100 µM.

With `C[C@H](NC(=O)C(c1cccnc1)n1c(=O)[nH]c2ccccc2c1=O)c1ccc(F)cc1F` (single isomer, unassigned) [Compound 508] the “Porcine Atria EC25 (Y75 value)” value [1] was 100 µM, the “Rabbit Psoas EC25 (Y75 value)” value [2] was 100 µM and the “Porcine Ventricle EC25 (Y75 value)” value [3] was 100 µM.

With `CC(NC(=O)Cn1c(=O)[nH]c2ccccc2c1=O)c1ccccc1Br` (stereo not drawn) [Compound 524, N-(1-(2-bromophenyl)ethyl)-2-(2,4-dioxo-1,4-dihydroquinazolin-3(2H)-yl)acetamide] the “Porcine Atria EC25 (Y75 value)” value [1] was 73.54 µM, the “Rabbit Psoas EC25 (Y75 value)” value [2] was 11.968 µM and the “Porcine Ventricle EC25 (Y75 value)” value [3] was 100 µM.

`C[C@H](NC(=O)C1(n2c(=O)[nH]c3cccc(C#N)c3c2=O)CC1)c1ncc(C#N)cc1F` (single isomer, unassigned) [Compound 3015] was tested, and the “Porcine Atria EC25 (Y75 value)” value [1] was 1.89 µM, the “Rabbit Psoas EC25 (Y75 value)” value [2] was 0.89 µM and the “Porcine Ventricle EC25 (Y75 value)” value [3] was 10.96 µM.

With `CC(NC(=O)Cn1c(=O)[nH]c2ccccc2c1=O)c1ccncc1` (stereo not drawn) [Compound 213, 2-(2,4-dioxo-1,4-dihydroquinazolin-3(2H)-yl)-N-(1-(pyridin-4-yl)ethyl)acetamide] the “Porcine Atria EC25 (Y75 value)” value [1] was 100 µM, the “Rabbit Psoas EC25 (Y75 value)” value [2] was 100 µM and the “Porcine Ventricle EC25 (Y75 value)” value [3] was 100 µM.
